Laboratory results: PubChem BioAssay AID588376 (Sanford-Burnham Center for Chemical Genomics, 2011)
The source made the active and inactive calls. No rule for the calls is given here.

Molecular target: Bcl-2-related protein A1 (Mus musculus) (UniProt Q07440)
Assay: off-target activity on mouse Bfl-1 – biochemical, set 2, counter-screen for UBC13 polyubiquitination inhibitor project, SAR follow-up (AID 588376)
Details: Bfl-1 biochemical counterscreen, dose response

Bcl-2-related protein A1 (Mus musculus), sequence (Q07440 whole entry, looked up): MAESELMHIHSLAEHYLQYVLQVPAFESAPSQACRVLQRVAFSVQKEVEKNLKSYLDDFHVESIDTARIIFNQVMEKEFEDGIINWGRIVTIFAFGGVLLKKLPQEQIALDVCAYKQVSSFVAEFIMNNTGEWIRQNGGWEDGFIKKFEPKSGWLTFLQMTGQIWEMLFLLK

## O=C(NCCCN1CCN(c2ccc(F)cc2)CC1)C1CCCN(c2ncnc3c2nc2n3CCCCC2)C1 (configuration not stated)
  IC50: > 100 µM (inactive)

## O=C(CN1CCC(n2cnc3cc(F)ccc32)CC1)Nc1cccc(C(F)(F)F)c1
  IC50: > 100 µM (inactive)

## COc1ccc(NC(=O)CN2CCC(n3c(C)nc4cc(F)ccc43)CC2)c(OC)c1
  IC50: > 100 µM (inactive)

## O=C(CN1CCC(n2cnc3cc(C(F)(F)F)ccc32)CC1)Nc1ccc2c(c1)OCCO2
  IC50: > 100 µM (inactive)

## CC1(C)Cc2c(sc(NC(=O)C(=O)NCCN3CCOCC3)c2C(N)=O)CO1
  IC50: > 100 µM (inactive)

## O=C(C1CCN(c2ncnc3c2nc2n3CCCCC2)CC1)N1CCN(c2ncccn2)CC1
  IC50: > 100 µM (inactive)

## CC1(C)Cc2c(sc(NC(=O)C(=O)NCC3CCCO3)c2C(N)=O)CO1 (configuration not stated)
  IC50: > 100 µM (inactive)

## Cc1ccc(C)c(N2CCN(CCCNC(=O)C3CCCN(c4ncnc5c4nc4n5CCCCC4)C3)CC2)c1 (configuration not stated)
  IC50: > 100 µM (inactive)

## O=C(C1CCN(c2ncnc3c2nc2n3CCCCC2)CC1)N1CCN(c2ccccn2)CC1
  IC50: > 100 µM (inactive)

## CCOc1ccc(NC(=O)CN2CCC(n3cnc4cc(F)ccc43)CC2)cc1
  IC50: > 100 µM (inactive)

## O=C(NCCCN1CCN(c2ccccc2)CC1)C1CCCN(c2ncnc3c2nc2n3CCCCC2)C1 (configuration not stated)
  IC50: > 100 µM (inactive)

## O=C(c1ccco1)N1CCN(C(=O)C2CCN(c3ncnc4c3nc3n4CCCCC3)CC2)CC1
  IC50: > 100 µM (inactive)

## O=C(CN1CCC(n2c(C(F)(F)F)nc3cc(F)ccc32)CC1)Nc1ccc2c(c1)OCO2
  IC50: > 100 µM (inactive)

## COc1ccccc1N1CCN(CCCNC(=O)C2CCCN(c3ncnc4c3nc3n4CCCCC3)C2)CC1 (configuration not stated)
  IC50: > 100 µM (inactive)

## O=C(C1CCN(c2ncnc3c2nc2n3CCCCC2)CC1)N1CCN(Cc2ccccc2)CC1
  IC50: > 100 µM (inactive)

## COc1ccc(OC)c(NC(=O)CN2CCC(n3c(C)nc4cc(F)ccc43)CC2)c1
  IC50: > 100 µM (inactive)

## Cc1cccc(NC(=O)CN2CCC(n3cnc4cc(F)ccc43)CC2)c1C
  IC50: > 100 µM (inactive)

## O=C(C1CCN(c2ncnc3c2nc2n3CCCCC2)CC1)N1CCN(c2ccc(F)cc2)CC1
  IC50: > 100 µM (inactive)

## COc1ccc(OC)c(NC(=O)CN2CCC(n3cnc4cc(F)ccc43)CC2)c1
  IC50: > 100 µM (inactive)

## Cc1cccc(N2CCN(CCCNC(=O)C3CCCN(c4ncnc5c4nc4n5CCCCC4)C3)CC2C)c1 (configuration not stated)
  IC50: > 100 µM (inactive)

## COC(=O)c1c(NC(=O)C(=O)NCC2CCCO2)sc2c1CC(C)(C)OC2 (configuration not stated)
  IC50: > 100 µM (inactive)

## CC1(C)Cc2c(sc(NC(=O)C(=O)N3CCCC3)c2C(N)=O)CO1
  IC50: > 100 µM (inactive)

## CCOc1ccccc1NC(=O)CN1CCC(n2cnc3cc(F)ccc32)CC1
  IC50: > 100 µM (inactive)

## Cc1nc2ccccc2n1C1CCN(CC(=O)Nc2ccccc2Oc2ccccc2)CC1
  IC50: > 100 µM (inactive)

## O=C(CN1CCC(n2cnc3cc(F)ccc32)CC1)Nc1ccccc1Br
  IC50: > 100 µM (inactive)

## CC1(C)Cc2c(sc(NC(=O)C(=O)NCC3CCCO3)c2C(=O)O)CO1 (configuration not stated)
  IC50: > 100 µM (inactive)

## Cc1nc2cc(F)ccc2n1C1CCN(CC(=O)Nc2ccccc2)CC1
  IC50: > 100 µM (inactive)
